One molecule from PMC10161222, “Small Molecule Decoys of Aggregation for Elimination of Aβ-Peptide Toxicity” (ACS Chemical Neuroscience, 2023) can be followed below.

The target in this experiment is T1, Aβ40 (Homo sapiens, UniProt P05067).
T1 construct: gene APP; 40-residue peptide cut from APP; IC50 rows: purchased mixture of HiLyte Fluor 488- and HiLyte Fluor 647-labelled human peptide (AnaSpec); ThT and TEM rows: unlabelled human recombinant peptide; self-associating, small oligomers of at most 8 monomers
T1 sequence (P05067 672-711 limits assumed): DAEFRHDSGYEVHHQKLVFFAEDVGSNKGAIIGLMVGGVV
Briefly: FRET-FCS early aggregation, molecular brightness (counts per particle). As to conditions: inhibition of oligomer formation; HiLyte 488/647-labelled Aβ40 (about 100 nM + 200 nM), 20 mM HEPES pH 7.4. Format: biochemical.

Take `COc1cc(-c2ccc(N=Nc3cc(S(=O)(=O)O)c4ccccc4c3O)c(OC)c2)ccc1N=Nc1cc(S(=O)(=O)O)c2ccccc2c1O` [#2, NSC 9615]: the half-maximal inhibitory concentration (IC50) amounted to 130 nM.
